Experimental findings from PubChem BioAssay (NCI) are described below.

Some test systems named below: NCI/ADR-RES ovarian; SF-295 CNS; NCI-H23 lung; MOLT-4 leukemia; MCF7 breast; A549 NSCLC; K-562 leukemia; BT-549 breast; RXF 393 renal; HL-60(TB) leukemia.
What all share (assay): DTP human tumour cell line panel, 48 h

The GI50 is the concentration giving 50% growth inhibition. A word on the TGI: it is the concentration giving total growth inhibition. A high value points to less potent growth arrest.

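Values below derive from 48-hour exposures of cells grown in 96-well plates, with endpoints linearly interpolated between the two concentrations bracketing the appropriate inhibition level. At the GI50, growth is halved. Definition used: TGI = concentration required for complete inhibition of growth.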

Regarding `C=CC(=O)N1CCN(c2ncnc3c(F)c(-c4c(O)cccc4F)c(Cl)cc23)CC1`, the GI50 in the assay with NCI/ADR-RES ovarian was 22.1 µM; in the assay with SF-295 CNS, 15.2 µM; with NCI-H23 lung, 0.43 µM; in the assay on MOLT-4 leukemia, 7.04 µM; in the assay with MCF7 breast, 9.68 µM; in the assay on A549 NSCLC, 18 µM. Further, the GI50 with K-562 leukemia is 21.2 µM; in the assay on BT-549 breast, 3.87 µM; in the assay with RXF 393 renal, 2.27 µM; in the assay with HL-60(TB) leukemia, 6.76 µM. For the same compound, the TGI in the assay on NCI/ADR-RES ovarian is 76.1 µM; in the assay with SF-295 CNS it was 35.3 µM; in the assay with NCI-H23 lung, 15.9 µM; with MOLT-4 leukemia, 56.9 µM; with MCF7 breast, 29.3 µM; in the assay on A549 NSCLC, 40.7 µM. Further, the TGI in the assay with K-562 leukemia is > 100 µM; in the assay with BT-549 breast it was 17.3 µM; in the assay with RXF 393 renal it was 14.7 µM; in the assay on HL-60(TB) leukemia, 45.6 µM.
Consider `C=CC(=O)Nc1cccc(Nc2nc(Nc3ccc(OCCOC)cc3)ncc2F)c1`, for which the GI50 in the assay with NCI/ADR-RES ovarian is 2.94 µM; in the assay with SF-295 CNS, 2.95 µM; in the assay with NCI-H23 lung, 5.67 µM; in the assay on MOLT-4 leukemia, 3.97 µM; in the assay on MCF7 breast, 2.54 µM; with A549 NSCLC it was 2.77 µM. In addition, the GI50 in the assay with K-562 leukemia is 4.8 µM; in the assay on BT-549 breast, 0.718 µM; with RXF 393 renal, 0.387 µM; in the assay on HL-60(TB) leukemia, 7.7 µM. Moreover, the TGI in the assay with NCI/ADR-RES ovarian came out at 16.3 µM; with SF-295 CNS, 14 µM; with NCI-H23 lung, 29.1 µM; with MOLT-4 leukemia, 33.6 µM; in the assay on MCF7 breast it was 17.2 µM; in the assay with A549 NSCLC, 13.1 µM. Besides, the TGI with K-562 leukemia was > 100 µM; with BT-549 breast, 8.23 µM; with RXF 393 renal, 2.73 µM; with HL-60(TB) leukemia it was 41.7 µM.
Take `COc1ccc2c(-c3cc4ccccc4o3)cc(=O)oc2c1`: the TGI in the assay on NCI/ADR-RES ovarian was > 100 µM; with SF-295 CNS, 79.7 µM; in the assay on NCI-H23 lung, > 100 µM; in the assay on MOLT-4 leukemia it was > 100 µM; with MCF7 breast it was > 100 µM; with A549 NSCLC it was > 100 µM. Further, the concentration for total growth inhibition (TGI) was > 100 µM in the assay with K-562 leukemia, > 100 µM with BT-549 breast, 53.5 µM with RXF 393 renal and > 100 µM with HL-60(TB) leukemia.
Consider `CNC(=O)c1ccc(-c2cnc3ncc(Cc4ccc5ncccc5c4)n3n2)cc1F`, for which the GI50 is > 100 µM with NCI/ADR-RES ovarian; 22.1 µM in the assay with SF-295 CNS; > 100 µM in the assay on NCI-H23 lung; > 100 µM in the assay with MOLT-4 leukemia; > 100 µM with MCF7 breast; > 100 µM in the assay with A549 NSCLC. Moreover, the GI50 with K-562 leukemia was > 100 µM; in the assay on BT-549 breast it was > 100 µM; in the assay with RXF 393 renal, 13.4 µM; in the assay on HL-60(TB) leukemia, > 100 µM. Also, the total growth inhibition concentration (TGI) in the assay on NCI/ADR-RES ovarian, in the assay on SF-295 CNS, in the assay with NCI-H23 lung, in the assay with MOLT-4 leukemia, in the assay on MCF7 breast and in the assay with A549 NSCLC was > 100 µM in each case. Besides, the TGI in the assay on K-562 leukemia, in the assay on BT-549 breast, in the assay with RXF 393 renal and with HL-60(TB) leukemia was > 100 µM in each case.
Regarding `CN(C)CCNC(=O)Nc1c(C#N)[n+]([O-])c2cc(Cl)c(Cl)cc2[n+]1[O-]`, the GI50 was > 100 µM in the assay on NCI/ADR-RES ovarian; 15 µM with SF-295 CNS; 27 µM with NCI-H23 lung; 3.92 µM in the assay with MOLT-4 leukemia; 18.5 µM in the assay with MCF7 breast; 34 µM with A549 NSCLC. In addition, the GI50 in the assay with K-562 leukemia is 29.3 µM; in the assay on BT-549 breast it was 10.7 µM; in the assay on RXF 393 renal it was 47.9 µM; in the assay with HL-60(TB) leukemia, 27.2 µM. Also, the TGI in the assay with NCI/ADR-RES ovarian is > 100 µM; in the assay on SF-295 CNS, 84.8 µM; in the assay on NCI-H23 lung, > 100 µM; in the assay with MOLT-4 leukemia it was 20.9 µM; in the assay with MCF7 breast, > 100 µM; in the assay with A549 NSCLC it was > 100 µM. Also, the TGI with K-562 leukemia was > 100 µM; in the assay with BT-549 breast, 39.8 µM; in the assay on RXF 393 renal, > 100 µM; in the assay with HL-60(TB) leukemia, > 100 µM.
As for `CCCCCC(=O)Oc1ccc(/C(=C(\C)c2ccc(OC)cc2)c2ccc(OCCN3CCCCC3)cc2)cc1`, the GI50 in the assay on NCI/ADR-RES ovarian is 11 µM; in the assay with SF-295 CNS, 2.28 µM; in the assay on NCI-H23 lung it was 10.1 µM; in the assay on MOLT-4 leukemia, 3.54 µM; in the assay with MCF7 breast, 0.726 µM; with A549 NSCLC, 10.1 µM. Moreover, the GI50 with K-562 leukemia is 3.16 µM; in the assay with BT-549 breast, 10.7 µM; with RXF 393 renal, 1.8 µM; with HL-60(TB) leukemia, 3.98 µM. Also, the TGI in the assay with NCI/ADR-RES ovarian was 26.1 µM; with SF-295 CNS, 6.32 µM; with NCI-H23 lung, 23.8 µM; in the assay on MOLT-4 leukemia, 18.8 µM; with MCF7 breast, 14.4 µM; in the assay on A549 NSCLC, 22.4 µM. In addition, the TGI was 16.2 µM in the assay with K-562 leukemia, 23.2 µM in the assay with BT-549 breast, 9.52 µM with RXF 393 renal and 17.8 µM in the assay with HL-60(TB) leukemia.
Turning to `Cc1ccc(C(=O)CC(Sc2cccc(Cl)c2Cl)c2ccc(Cl)cc2)cc1C` (stereo not given), the GI50 in the assay with NCI/ADR-RES ovarian was 23.3 µM; in the assay on SF-295 CNS it was 16.9 µM; with NCI-H23 lung, 17.4 µM; in the assay with MOLT-4 leukemia it was 33 µM; in the assay with MCF7 breast it was 15.9 µM; in the assay on A549 NSCLC, 19.2 µM. Moreover, the GI50 in the assay on K-562 leukemia is 27.2 µM; with BT-549 breast it was 24.5 µM; in the assay with RXF 393 renal it was 25.8 µM; with HL-60(TB) leukemia, 30.6 µM. Moreover, the TGI in the assay with NCI/ADR-RES ovarian is 48.9 µM; in the assay with SF-295 CNS, 37.2 µM; in the assay on NCI-H23 lung, 32.6 µM; in the assay on MOLT-4 leukemia it was > 100 µM; with MCF7 breast, 36.1 µM; in the assay with A549 NSCLC it was 52.6 µM. The TGI was > 100 µM in the assay with K-562 leukemia, 46.9 µM with BT-549 breast, 56.9 µM with RXF 393 renal and > 100 µM with HL-60(TB) leukemia.
On to `COc1cc2c3c(n(CCCN4CCC(N)CC4)c(=O)c2cc1OC)-c1cc2c(cc1C3=O)OCO2`, for which the GI50 is 2.93 µM in the assay with NCI/ADR-RES ovarian; 0.479 µM with SF-295 CNS; 0.475 µM with NCI-H23 lung; 0.0456 µM in the assay with MOLT-4 leukemia; 0.283 µM in the assay on MCF7 breast; 0.278 µM in the assay with A549 NSCLC. Also, the GI50 with K-562 leukemia was 0.587 µM; in the assay with BT-549 breast, 2.41 µM; in the assay on RXF 393 renal, 0.94 µM; in the assay with HL-60(TB) leukemia, 4.04 µM. For the same compound, the TGI amounted to 20.8 µM in the assay on NCI/ADR-RES ovarian; 1.36 µM with SF-295 CNS; 1.6 µM in the assay with NCI-H23 lung; 1.89 µM in the assay on MOLT-4 leukemia; 1.01 µM with MCF7 breast; 0.927 µM in the assay on A549 NSCLC. Moreover, the total growth inhibition concentration (TGI) with K-562 leukemia is 6.91 µM; with BT-549 breast it was 9.84 µM; in the assay on RXF 393 renal, 3.31 µM; in the assay on HL-60(TB) leukemia it was 7.87 µM.
